The test has as its target T1, GTPase KRas [1-169,G12C,C118A] (Homo sapiens, UniProt P01116, C118A/G12C).
T1 construct: 1-169

T1 sequence (P01116 1-169 G12C/C118A): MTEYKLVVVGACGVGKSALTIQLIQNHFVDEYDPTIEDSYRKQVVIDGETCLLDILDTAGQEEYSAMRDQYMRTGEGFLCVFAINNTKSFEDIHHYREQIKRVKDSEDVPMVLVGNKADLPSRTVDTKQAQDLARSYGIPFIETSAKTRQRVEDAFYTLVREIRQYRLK

A word on the IC50: it is the concentration at which inhibition is half-maximal. Read a high IC50 as weaker potency in that assay. `C=CC(=O)N1CC2(CCN(c3nc4c(c(N[C@@H](CC(C)C)Cn5ccnn5)n3)CCC(C)(C)C4)C2)C1` [WO2022093856, Example 1-47] yielded an IC50 of 0.822 µM.
